From patent US12065443B2, “Compounds and pharmaceutical compositions thereof for the treatment of diseases” (priority 2017, dated 2024)
Like-named read-outs stand apart in the source and are kept apart here.

Key:
[1] = molecular target: T1, SIK2 (Homo sapiens, UniProt Q9H0K1); assay: biochemical; conditions: ADP-Glo SIK kinase assay
T1 construct: purchased ThermoFisher Scientific PV4792
Procedure: (§1) The ADP-Glo™ kinase assay is a luminescent technology assay which measures the ADP formed from a kinase reaction. […] In a second step the kinase reactions are terminated and all the remaining ATP is depleted. In a final step the ADP is converted into ATP and this newly synthesized ATP is measured by using a luciferase/luciferin reaction. The generated light is measured using an Envision plate reader, wherein the luminescent signal obtained positively correlates with the kinase activity.
(§2) 1% DMSO and 10 μM staurosporine final concentrations are used as negative and positive controls.
(§3) 2 μL enzyme-substrate mixture is added to the assay plates.
(§4) The reaction is started by adding 2 μL diluted ATP on the assay plates. Plates are centrifuged for a few seconds at 1000 rpm and gently shaken for 2 min followed by an incubation at RT for 120 min.
(§5) The reactions are stopped and the unconsumed ATP is depleted by adding 5 μL ADP-Glo Reagent (Promega, Cat #V912B) to the reaction. The plates are centrifuged for a few seconds at 1000 rpm and incubated at RT for 40 min (ATP depletion).
(§6) The ADP is converted to ATP and luciferase and luciferin is introduced to detect ATP by adding 10 μL Kinase Detection Reagent (Promega, Cat #V913B+V914B) to the reaction. The plates are centrifuged for a few seconds at 1000 rpm and incubated at RT for 30 min (ADP detection).
(§7) Luminescence is measured on an Envision plate reader (PerkinElmer Inc.).

[2] = molecular target: T2, SIK3 (Homo sapiens, UniProt Q9Y2K2); assay: biochemical; conditions: ADP-Glo SIK kinase assay
T2 construct: purchased SignalChem S12-11G-100
T2 sequence (Q9Y2K2 whole entry): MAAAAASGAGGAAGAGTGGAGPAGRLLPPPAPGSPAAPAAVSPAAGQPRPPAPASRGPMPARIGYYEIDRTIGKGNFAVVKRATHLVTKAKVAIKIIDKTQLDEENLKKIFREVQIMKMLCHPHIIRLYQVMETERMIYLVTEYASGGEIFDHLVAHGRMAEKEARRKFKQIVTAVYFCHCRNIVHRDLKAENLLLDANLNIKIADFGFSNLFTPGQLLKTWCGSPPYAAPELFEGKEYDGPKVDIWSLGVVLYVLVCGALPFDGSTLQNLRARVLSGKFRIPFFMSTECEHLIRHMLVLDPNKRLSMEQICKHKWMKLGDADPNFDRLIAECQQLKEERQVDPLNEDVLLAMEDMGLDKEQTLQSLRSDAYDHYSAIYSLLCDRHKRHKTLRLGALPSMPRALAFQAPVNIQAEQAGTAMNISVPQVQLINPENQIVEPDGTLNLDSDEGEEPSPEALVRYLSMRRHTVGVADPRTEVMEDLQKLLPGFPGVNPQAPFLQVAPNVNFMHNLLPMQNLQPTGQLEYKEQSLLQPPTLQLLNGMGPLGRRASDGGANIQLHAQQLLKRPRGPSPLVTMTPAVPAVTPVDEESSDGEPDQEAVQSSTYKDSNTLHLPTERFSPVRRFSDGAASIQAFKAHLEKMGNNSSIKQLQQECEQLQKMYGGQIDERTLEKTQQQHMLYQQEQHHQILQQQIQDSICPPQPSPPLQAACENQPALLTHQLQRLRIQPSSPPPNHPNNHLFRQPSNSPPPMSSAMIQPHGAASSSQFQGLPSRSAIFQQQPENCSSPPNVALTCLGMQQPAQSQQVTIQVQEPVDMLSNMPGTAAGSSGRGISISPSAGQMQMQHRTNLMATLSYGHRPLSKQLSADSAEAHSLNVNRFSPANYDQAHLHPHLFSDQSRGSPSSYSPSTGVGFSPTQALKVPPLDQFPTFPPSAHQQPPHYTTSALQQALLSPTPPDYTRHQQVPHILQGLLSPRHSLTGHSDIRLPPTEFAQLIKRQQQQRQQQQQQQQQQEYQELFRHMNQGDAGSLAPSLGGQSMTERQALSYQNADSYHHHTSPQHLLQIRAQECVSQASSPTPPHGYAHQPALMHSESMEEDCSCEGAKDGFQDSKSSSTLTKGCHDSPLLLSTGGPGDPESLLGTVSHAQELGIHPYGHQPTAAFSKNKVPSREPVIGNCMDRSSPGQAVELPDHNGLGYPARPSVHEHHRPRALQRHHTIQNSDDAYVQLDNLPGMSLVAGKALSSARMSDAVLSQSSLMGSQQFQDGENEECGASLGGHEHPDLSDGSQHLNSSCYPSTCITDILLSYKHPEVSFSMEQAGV
Procedure: as §1, §2, §3, §4, §5, §6, §7

[3] = molecular target: T3, SIK1 (Homo sapiens, UniProt P57059); assay: biochemical; conditions: ADP-Glo SIK kinase assay
T3 construct: purchased Carna Biosciences 02-131
T3 sequence (P57059 whole entry): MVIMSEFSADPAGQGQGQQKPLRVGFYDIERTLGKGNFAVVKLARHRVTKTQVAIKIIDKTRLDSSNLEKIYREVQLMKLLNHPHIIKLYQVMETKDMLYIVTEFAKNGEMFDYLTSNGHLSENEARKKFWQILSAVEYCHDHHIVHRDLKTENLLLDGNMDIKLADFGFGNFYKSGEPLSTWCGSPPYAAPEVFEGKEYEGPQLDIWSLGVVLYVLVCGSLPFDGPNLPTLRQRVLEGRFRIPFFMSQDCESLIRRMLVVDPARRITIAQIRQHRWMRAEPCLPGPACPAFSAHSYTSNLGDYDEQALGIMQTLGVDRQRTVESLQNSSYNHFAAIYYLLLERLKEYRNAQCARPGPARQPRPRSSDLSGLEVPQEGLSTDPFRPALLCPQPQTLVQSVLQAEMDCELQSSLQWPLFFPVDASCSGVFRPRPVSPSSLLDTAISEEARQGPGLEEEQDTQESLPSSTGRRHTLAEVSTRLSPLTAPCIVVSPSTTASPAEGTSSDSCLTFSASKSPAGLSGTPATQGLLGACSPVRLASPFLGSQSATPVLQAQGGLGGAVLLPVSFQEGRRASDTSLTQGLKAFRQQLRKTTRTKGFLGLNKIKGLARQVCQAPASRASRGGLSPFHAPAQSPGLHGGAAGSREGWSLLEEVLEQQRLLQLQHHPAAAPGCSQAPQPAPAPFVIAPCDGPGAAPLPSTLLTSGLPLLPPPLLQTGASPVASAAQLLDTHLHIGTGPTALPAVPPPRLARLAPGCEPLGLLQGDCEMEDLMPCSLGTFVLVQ
Procedure: as §1, §2, §3, §4, §5, §6, §7

[4] = test system: LPS-induced TNFα secretion in monocyte-derived macrophages (MdM); assay: MdM assay: LPS-triggered TNFα (ELISA); format: cell-based, human; conditions: Homo sapiens, Macrophage, LPS-triggered TNFα inhibition
Method in brief: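 TNFα ELISA read on supernatants harvested 20 h after LPS (final 200 ng/mL) stimulation. Cells were day-10 macrophages derived from human blood CD14+ monocytes, exposed to 3-fold compound dilutions for 1 h at 37 °C beforehand, with DMSO held at 0.2%.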

[5] = molecular target: T1, SIK2; assay: biochemical; conditions: 33P radioactive SIK kinase assay, AMARA peptide, 10 μM ATP
Method in brief: (§8)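 Read-out: ^33P incorporated into AMARA peptide, counted on filter plates, taken as kinase activity. Reactions start on addition of labeled/unlabeled ATP to enzyme plus substrate and end with phosphoric acid. Controls: 1% DMSO (negative) and 10 μM staurosporine (positive), final.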

[6] = molecular target: T2, SIK3; assay: biochemical
Method in brief: as §8

[7] = molecular target: T3, SIK1; assay: biochemical; conditions: 33P radioactive SIK kinase assay, AMARA peptide, 10 μM ATP; read-out: SIK1 IC50
Method in brief: as §8

T1 sequence (Q9H0K1 whole entry): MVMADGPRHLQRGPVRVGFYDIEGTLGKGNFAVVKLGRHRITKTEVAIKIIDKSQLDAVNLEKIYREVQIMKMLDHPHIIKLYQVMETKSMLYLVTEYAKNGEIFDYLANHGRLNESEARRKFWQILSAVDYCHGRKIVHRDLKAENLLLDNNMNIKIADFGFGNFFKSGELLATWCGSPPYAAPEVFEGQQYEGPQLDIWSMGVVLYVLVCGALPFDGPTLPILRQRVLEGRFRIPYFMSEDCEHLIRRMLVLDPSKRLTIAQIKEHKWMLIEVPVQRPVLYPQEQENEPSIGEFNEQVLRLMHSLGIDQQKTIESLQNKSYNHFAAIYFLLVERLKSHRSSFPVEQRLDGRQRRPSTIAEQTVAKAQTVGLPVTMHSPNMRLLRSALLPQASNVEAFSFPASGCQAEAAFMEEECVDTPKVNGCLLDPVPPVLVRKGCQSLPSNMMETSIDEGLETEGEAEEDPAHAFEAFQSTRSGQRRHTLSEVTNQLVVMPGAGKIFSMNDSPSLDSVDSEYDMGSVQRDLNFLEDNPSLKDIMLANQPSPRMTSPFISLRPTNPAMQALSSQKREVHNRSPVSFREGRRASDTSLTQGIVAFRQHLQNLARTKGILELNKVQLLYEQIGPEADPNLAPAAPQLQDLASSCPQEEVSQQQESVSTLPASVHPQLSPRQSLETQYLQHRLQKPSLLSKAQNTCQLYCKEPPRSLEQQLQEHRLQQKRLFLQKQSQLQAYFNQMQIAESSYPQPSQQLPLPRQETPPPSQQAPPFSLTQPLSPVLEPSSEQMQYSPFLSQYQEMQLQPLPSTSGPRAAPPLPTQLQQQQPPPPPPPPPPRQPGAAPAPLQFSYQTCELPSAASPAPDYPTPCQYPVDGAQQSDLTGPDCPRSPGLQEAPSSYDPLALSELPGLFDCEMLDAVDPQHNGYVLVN

COc1cc(-c2cnc3cc(-c4cn[nH]c4)ccn23)cc(OC(F)F)c1C(=O)NC1CC1 [compound 307, N-cyclopropyl-2-(difluoromethoxy)-6-methoxy-4-[7-(1H-pyrazol-4-yl)imidazo[1,2-a]pyridin-3-yl]benzamide]
IC50 [1]: 0.01 to 10 nM
IC50 [2]: 0.01 to 10 nM
IC50 [3]: 0.01 to 10 nM
EC50 [4]: 0.1 to 100 nM

CCN1Cc2cc(-n3cnc4cc(-c5cnn(C)c5)ccc43)cc(NCCO)c2C1=O [Cpd 202, 2-ethyl-7-(2-hydroxyethylamino)-5-[5-(1-methylpyrazol-4-yl)benzimidazol-1-yl]isoindolin-1-one]
IC50 [1]: 100 to 500 nM
IC50 [2]: 100 to 500 nM
IC50 [3]: 100 to 500 nM
IC50 [5]: 100 to 500 nM
IC50 [6]: > 500 nM
IC50 [7]: 100 to 500 nM

CCOC(=O)Cn1cc(-c2ccn3c(-c4cc(OC)c(C(=O)NC5CC5)c(OC(F)F)c4)cnc3c2)cn1 [Cpd 284, ethyl 2-[4-[3-[4-(cyclopropyl-carbamoyl)-3-(difluoromethoxy)-5-methoxy-phenyl]imidazo[1,2-a]pyridin-7-yl]pyrazol-1-yl]acetate]
IC50 [1]: 0.01 to 10 nM
IC50 [2]: 0.01 to 10 nM
IC50 [3]: 0.01 to 10 nM

COc1cc(-c2cnc3cc(-c4cnn(C5CN(C(=O)OC(C)(C)C)C5)c4)ccn23)cc(OC)c1C(=O)NCC(F)(F)F [compound 260, tert-butyl 3-[4-[3-[3,5-dimethoxy-4-(2,2,2-trifluoroethyl-carbamoyl)phenyl]imidazo[1,2-a]pyridin-7-yl]pyrazol-1-yl]azetidine-1-carboxylate]
IC50 [1]: 0.01 to 10 nM
IC50 [2]: 0.01 to 10 nM
IC50 [3]: 0.01 to 10 nM
IC50 [5]: 0.01 to 10 nM
IC50 [6]: 0.01 to 10 nM
IC50 [7]: 0.01 to 10 nM

CCN1Cc2cc(-c3cnc4cc(-c5cnn(C)c5)ccn34)cc(NCCO)c2C1=O [compound 201, 2-ethyl-7-(2-hydroxyethylainino)-5-[7-(1-methylpyrazol-4-yl)imidazo[1,2-a]pyridin-3-yl]isoindolin-1-one]
IC50 [1]: 10 to 100 nM
IC50 [2]: 10 to 100 nM
IC50 [3]: 100 to 500 nM
IC50 [5]: 10 to 100 nM
IC50 [6]: 100 to 500 nM
IC50 [7]: > 500 nM

COc1cc(-c2cnc3cc(-c4cccnc4C#N)ccn23)cc(OC)c1C(=O)NCC(F)(F)F [compound 268, 4-[7-(2-cyano-3-pyridyl)imidazo[1,2-a]pyridin-3-yl]-2,6-dimethoxy-N-(2,2,2-trifluoroethyl)benzamide]
IC50 [1]: 100 to 500 nM
IC50 [2]: 10 to 100 nM
IC50 [3]: > 500 nM

COc1cc(-c2cnc3cc(-c4ccc(N5CCOCC5)nn4)ccn23)cc(OC(F)F)c1C(=O)NC1CC1 [compound 286, N-cyclopropyl-2-(difluoromethoxy)-6-methoxy-4-[7-(6-morpholino-pyridazin-3-yl)imidazo[1,2-a]pyridin-3-yl]benzamide]
IC50 [1]: 0.01 to 10 nM
IC50 [2]: 0.01 to 10 nM
IC50 [3]: 0.01 to 10 nM

COc1cc(-c2cnc3cc(-c4ccc(C(F)(F)F)nn4)ccn23)cc(OC(F)F)c1C(=O)NC1CC1 [compound 281, N-cyclopropyl-2-(difluoromethoxy)-6-methoxy-4-[7-[6-(trifluoromethyl)pyridazin-3-yl]imidazo[1,2-a]pyridin-3-yl]benzamide]
IC50 [1]: 0.01 to 10 nM
IC50 [2]: 0.01 to 10 nM
IC50 [3]: 10 to 100 nM

COc1cc(-c2cnc3cc(-c4cnn(C)c4)c(OC(C)C(=O)O)cn23)cc(OC(F)F)c1C(=O)NC1CC1 (stereo not shown) [Cpd 303, 2-[3-[4-(cyclopropyl-carbamoyl)-3-(difluoromethoxy)-5-methoxy-phenyl]-7-(1-methylpyrazol-4-yl)imidazo[1,2-a]pyridin-6-yl]oxypropanoic acid]
IC50 [1]: 10 to 100 nM
IC50 [2]: 10 to 100 nM
IC50 [3]: 10 to 100 nM

COc1cc(-c2cnc3cc(-c4cnn(C)c4)c(OCc4ccccc4)cn23)cc(OC(F)F)c1C(=O)NC1CC1 [Cpd 300, 4-[6-benzyloxy-7-(1-methylpyrazol-4-yl)imidazo[1,2-a]pyridin-3-yl]-N-cyclopropyl-2-(difluoromethoxy)-6-methoxy-benzamide]
IC50 [1]: 0.01 to 10 nM
IC50 [2]: 10 to 100 nM
IC50 [3]: 10 to 100 nM

CCN1Cc2cc(-n3cnc4cc(-c5cnn(C)c5)ccc43)cc(F)c2C1=O [Cpd 175, 2-ethyl-7-fluoro-5-[5-(1-methylpyrazol-4-yl)benzimidazol-1-yl]isoindolin-1-one]
IC50 [1]: 100 to 500 nM
IC50 [2]: 100 to 500 nM
IC50 [3]: > 500 nM
IC50 [5]: 100 to 500 nM
IC50 [6]: 100 to 500 nM
IC50 [7]: > 500 nM

COc1cc(-c2cnc3cc(-c4cnccc4C#N)ccn23)cc(OC)c1C(=O)NCC(F)(F)F [Cpd 258]
IC50 [1]: > 500 nM
IC50 [2]: 10 to 100 nM
IC50 [3]: > 500 nM
IC50 [5]: > 500 nM
IC50 [6]: 100 to 500 nM
IC50 [7]: > 500 nM

Cn1cc(-c2ccn3c(-c4cc(F)c(C(=O)NCC(F)(F)F)c(F)c4)cnc3c2)cn1 [compound 271, 2,6-difluoro-4-[7-(1-methylpyrazol-4-yl)imidazo[1,2-a]pyridin-3-yl]-N-(2,2,2-trifluoroethyl)benzamide]
IC50 [1]: 0.01 to 10 nM
IC50 [2]: 10 to 100 nM
IC50 [3]: 100 to 500 nM

COc1cc(-c2cnc3cc(-c4cnn(C)c4)ccn23)cc(OC)c1C(=O)N[C@H]1C[C@@H]1C(F)F [compound 172, N-[(1S,2S)-2-(difluoromethyl)cyclopropyl]-2,6-dimethoxy-4-[7-(1-methylpyrazol-4-yl)imidazo[1,2-a]pyridin-3-yl]benzamide]
IC50 [1]: 0.01 to 10 nM
IC50 [2]: 0.01 to 10 nM
IC50 [3]: 0.01 to 10 nM
IC50 [5]: 0.01 to 10 nM
IC50 [6]: 0.01 to 10 nM
IC50 [7]: 10 to 100 nM

COc1cc(-c2cnc3cc(-c4ccc(C#N)nn4)ccn23)cc(OC(F)F)c1C(=O)NC1CC1 [compound 282, 4-[7-(6-cyanopyridazin-3-yl)imidazo[1,2-a]pyridin-3-yl]-N-cyclopropyl-2-(difluoromethoxy)-6-methoxy-benzamide]
IC50 [1]: 0.01 to 10 nM
IC50 [2]: 0.01 to 10 nM
IC50 [3]: 0.01 to 10 nM

COc1cc(-c2cnc3cc(-c4cnn(C)c4)c(OC(C)C#N)cn23)cc(OC(F)F)c1C(=O)NC1CC1 (stereo not shown) [Cpd 301, 4-[6-(1-cyanoethoxy)-7-(1-methylpyrazol-4-yl)imidazo[1,2-a]pyridin-3-yl]-N-cyclopropyl-2-(difluoromethoxy)-6-methoxy-benzamide]
IC50 [1]: 0.01 to 10 nM
IC50 [2]: 0.01 to 10 nM
IC50 [3]: 0.01 to 10 nM

CCOC(=O)C(C)Oc1cn2c(-c3cc(OC)c(C(=O)NC4CC4)c(OC(F)F)c3)cnc2cc1-c1cnn(C)c1 (stereo not shown) [Cpd 302, ethyl 2-[3-[4-(cyclopropyl-carbamoyl)-3-(difluoromethoxy)-5-methoxy-phenyl]-7-(1-methylpyrazol-4-yl)imidazo[1,2-a]pyridin-6-yl]oxypropanoate]
IC50 [1]: 10 to 100 nM
IC50 [2]: 10 to 100 nM
IC50 [3]: 10 to 100 nM

COc1cc(-c2cnc3cc(-c4cnn(C(C)(C)C(=O)O)c4)ccn23)cc(OC)c1C(=O)NCC(F)(F)F [Cpd 304, 2-[4-[3-[3,5-dimethoxy-4-(2,2,2-trifluoroethyl-carbamoyl)phenyl]imidazo[1,2-a]pyridin-7-yl]pyrazol-1-yl]-2-methyl-propanoic acid]
IC50 [1]: 10 to 100 nM
IC50 [2]: 0.01 to 10 nM
IC50 [3]: 0.01 to 10 nM

[2H]C([2H])([2H])Oc1cc(-c2cnc3cc(-c4cnn(C)c4)ccn23)cc(OC([2H])([2H])[2H])c1C(=O)NCC(F)(F)F [Cpd 266, 4-[7-(1-methylpyrazol-4-yl)imidazo[1,2-a]pyridin-3-yl]-2,6-bis(trideuterio-methoxy)-N-(2,2,2-trifluoroethyl)benzamide]
IC50 [1]: 0.01 to 10 nM
IC50 [2]: 0.01 to 10 nM
IC50 [3]: 0.01 to 10 nM

COc1cc(-c2cnc3cc(-c4ccc(N(C)C)nn4)ccn23)cc(OC(F)F)c1C(=O)NC1CC1 [compound 283, N-cyclopropyl-2-(difluoromethoxy)-4-[7-[6-(dimethylamino)pyridazin-3-yl]imidazo[1,2-a]pyridin-3-yl]-6-methoxy-benzamide]
IC50 [1]: 0.01 to 10 nM
IC50 [2]: 0.01 to 10 nM
IC50 [3]: 0.01 to 10 nM

COc1cc(-c2cnc3cc(-c4cnccc4C(N)=O)ccn23)cc(OC)c1C(=O)NCC(F)(F)F [Cpd 259, 3-[3-[3,5-dimethoxy-4-(2,2,2-trifluoroethyl-carbamoyl)phenyl]imidazo[1,2-a]pyridin-7-yl]pyridine-4-carboxamide]
IC50 [1]: > 500 nM
IC50 [2]: 10 to 100 nM
IC50 [3]: > 500 nM
IC50 [5]: > 500 nM
IC50 [6]: 100 to 500 nM
IC50 [7]: > 500 nM
